pIC50: −log10 of the molar value.
What was measured:
PI3K alpha = biological target: T1, PI3K alpha (Homo sapiens, UniProt P42336); experiment: PI3K alpha kinase assay (Kinase-Glo luminescence); assay type: biochemical
T1 construct: p85(iSH2) fusion partner (see partner chain) (N); His tag (C); made in house; host or cells: baculovirus; Tn5 (Trichoplusia ni) or TiniPro insect cells
Outline: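 Read-out: Kinase-Glo luminescence of ATP left after 60 min at room temperature. Conditions: 10 nM PI3Kα (EMV B1075), 1 μM ATP, 10 μg/mL PI substrate, Tris pH 7.5 buffer with MgCl2, NaCl, CHAPS and DTT. IC50s fitted with a four-parameter logistic model.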

PI3K beta = biological target: T2, PI3K beta (Homo sapiens, UniProt P42338); experiment: PI3K beta kinase assay (Kinase-Glo luminescence); assay type: biochemical
T2 construct: for the full-length p110-b subunit are generated and fused by overlapping PCR; p85(iSH2) fusion partner (see partner chain) (N); His tag (C); made in house; host or cells: baculovirus; Tn5 (Trichoplusia ni) or TiniPro insect cells
Outline: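 IC50 is derived by four-parameter logistic curve fitting of Kinase-Glo luminescence, which measures ATP left after a 60 min room-temperature reaction. Conditions are 25 nM His-tagged p85(iSH2)-p110β, 1 μM ATP and 10 μg/mL bovine liver phosphatidylinositol.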

[1] = tested on: PKB Ser473 phosphorylation in Rat1-myr-HA-p110 beta cells; experiment: Reverse protein array assay, PKB Ser473 phosphorylation in Rat1-myr-p110 beta cells; assay type: cell-based; details: 0.5 h, pAkt Ser473, 30 minutes incubation, read-out: p-PKB IC50
Outline: (§1)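 Compound exposure lasted 30 min in Rat1 cells bearing membrane-targeted HA-p110 isoforms, using 8 serial concentrations. Arrayed lysates, each spotted at four dilutions, gave relative fluorescence signals for phospho-Ser473 PKB.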

[2] = tested on: PKB Ser473 phosphorylation in Rat1-myr-HA-p110 delta cells; experiment: Reverse protein array assay, PKB Ser473 phosphorylation in Rat1-myr-p110 delta cells; assay type: cell-based; details: read-out: p-PKB IC50
Outline: as §1

T2 sequence (P42338 with tags, fused parts or gaps limits assumed): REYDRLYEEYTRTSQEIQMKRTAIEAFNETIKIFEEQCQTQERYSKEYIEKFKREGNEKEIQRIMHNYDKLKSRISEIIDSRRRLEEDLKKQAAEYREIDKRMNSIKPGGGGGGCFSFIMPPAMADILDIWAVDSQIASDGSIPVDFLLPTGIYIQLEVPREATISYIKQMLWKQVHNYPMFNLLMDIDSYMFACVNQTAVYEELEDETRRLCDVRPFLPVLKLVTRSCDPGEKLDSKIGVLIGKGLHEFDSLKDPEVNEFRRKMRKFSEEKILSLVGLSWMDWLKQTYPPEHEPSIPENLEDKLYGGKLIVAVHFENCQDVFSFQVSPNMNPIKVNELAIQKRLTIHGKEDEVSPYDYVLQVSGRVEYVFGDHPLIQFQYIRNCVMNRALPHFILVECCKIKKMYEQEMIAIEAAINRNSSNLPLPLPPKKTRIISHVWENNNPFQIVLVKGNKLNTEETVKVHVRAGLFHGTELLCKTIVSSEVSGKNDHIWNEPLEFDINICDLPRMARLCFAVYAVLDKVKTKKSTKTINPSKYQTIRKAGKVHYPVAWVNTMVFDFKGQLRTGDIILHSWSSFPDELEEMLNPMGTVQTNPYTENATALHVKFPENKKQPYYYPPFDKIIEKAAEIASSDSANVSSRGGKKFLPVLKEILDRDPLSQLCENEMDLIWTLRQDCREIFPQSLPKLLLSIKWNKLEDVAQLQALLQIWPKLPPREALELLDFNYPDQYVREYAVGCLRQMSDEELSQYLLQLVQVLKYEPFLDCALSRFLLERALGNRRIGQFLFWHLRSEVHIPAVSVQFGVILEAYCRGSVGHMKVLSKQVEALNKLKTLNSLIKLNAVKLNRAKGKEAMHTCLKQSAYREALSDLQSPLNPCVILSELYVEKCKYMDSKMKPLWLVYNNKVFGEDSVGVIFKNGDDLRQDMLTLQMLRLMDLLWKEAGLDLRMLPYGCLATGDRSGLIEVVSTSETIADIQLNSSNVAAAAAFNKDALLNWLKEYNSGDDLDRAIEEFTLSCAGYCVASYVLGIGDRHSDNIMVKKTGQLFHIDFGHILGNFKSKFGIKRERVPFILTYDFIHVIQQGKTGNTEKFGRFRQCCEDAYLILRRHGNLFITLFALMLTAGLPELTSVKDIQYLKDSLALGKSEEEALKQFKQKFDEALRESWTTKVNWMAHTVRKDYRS
T1 sequence (P42336 with tags, fused parts or gaps limits assumed): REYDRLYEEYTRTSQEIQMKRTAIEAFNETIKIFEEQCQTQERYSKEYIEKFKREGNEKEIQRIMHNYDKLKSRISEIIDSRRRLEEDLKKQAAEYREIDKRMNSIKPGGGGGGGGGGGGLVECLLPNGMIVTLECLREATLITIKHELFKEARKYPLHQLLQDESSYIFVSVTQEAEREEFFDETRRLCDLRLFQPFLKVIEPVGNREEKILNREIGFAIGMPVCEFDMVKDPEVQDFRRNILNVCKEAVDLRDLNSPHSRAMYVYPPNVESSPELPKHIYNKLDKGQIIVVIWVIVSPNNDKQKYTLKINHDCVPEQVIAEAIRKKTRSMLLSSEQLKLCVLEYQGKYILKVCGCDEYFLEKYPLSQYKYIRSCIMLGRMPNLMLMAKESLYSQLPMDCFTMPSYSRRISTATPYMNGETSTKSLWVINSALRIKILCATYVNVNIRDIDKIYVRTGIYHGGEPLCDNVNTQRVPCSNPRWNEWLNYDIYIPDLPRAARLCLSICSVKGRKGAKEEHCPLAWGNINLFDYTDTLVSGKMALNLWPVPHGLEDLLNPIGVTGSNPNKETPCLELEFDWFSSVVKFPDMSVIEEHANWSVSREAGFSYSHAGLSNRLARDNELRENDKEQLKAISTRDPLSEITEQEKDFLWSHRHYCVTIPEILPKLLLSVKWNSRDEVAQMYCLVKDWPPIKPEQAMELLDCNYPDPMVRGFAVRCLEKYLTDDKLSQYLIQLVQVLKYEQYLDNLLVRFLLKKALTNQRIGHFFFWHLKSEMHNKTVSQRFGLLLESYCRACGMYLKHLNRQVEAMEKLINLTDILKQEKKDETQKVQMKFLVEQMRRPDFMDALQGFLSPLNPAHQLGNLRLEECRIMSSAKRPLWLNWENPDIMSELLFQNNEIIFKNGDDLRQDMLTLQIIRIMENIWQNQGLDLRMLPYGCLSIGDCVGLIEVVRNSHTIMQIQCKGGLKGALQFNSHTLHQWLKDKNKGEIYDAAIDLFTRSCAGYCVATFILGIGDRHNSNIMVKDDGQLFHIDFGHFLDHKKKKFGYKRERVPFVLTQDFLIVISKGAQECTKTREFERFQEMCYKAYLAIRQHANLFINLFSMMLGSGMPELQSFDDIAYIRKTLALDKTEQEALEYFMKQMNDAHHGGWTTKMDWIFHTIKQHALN

| SMILES | pIC50 (PI3K alpha) | pIC50 (PI3K beta) | pIC50 [1] | pIC50 [2] |
| --- | --- | --- | --- | --- |
| CN(C)c1ccc(-c2ccc3ncc4c(c3c2)n(-c2cn(C)nc2Cl)c(=O)n4C)cn1 [Example 4.9, 1-(3-Chloro-1-methyl-1H-pyrazol-4-yl)-8-(6-dimethylamino-pyridin-3-yl)-3-methyl-1,3-dihydro-imidazo[4,5-c]quinolin-2-one] | 8.05 | 7.23 | 8.22 | 8.10 |
| CN(C)c1ncc(-c2ccc3ncc4c(c3c2)n(-c2cn(C)nc2Cl)c(=O)n4C)cn1 [Example 6.3, 1-(3-Chloro-1-methyl-1H-pyrazol-4-yl)-8-(2-dimethylamino-pyrimidin-5-yl)-3-methyl-1,3-dihydro-imidazo[4,5-c]quinolin-2-one] | 8.10 | 7.29 | 7.82 | 7.62 |
| CNS(=O)(=O)c1cccc(-c2ccc3ncc4c(c3c2)n(-c2cn(C)nc2C)c(=O)n4C)c1 [Example 39, 3-[1-(1,3-Dimethyl-1H-pyrazol-4-yl)-3-methyl-2-oxo-2,3-dihydro-1H-imidazo[4,5-c]quinolin-8-yl]-N-methyl-benzenesulfonamide] | > 8.52 | 7.89 | 7.19 | 7.08 |
| Cc1nn(C)cc1-n1c(=O)n(C)c2cnc3ccc(-c4cccc(NS(C)(=O)=O)c4)cc3c21 [Example 47, N-{3-[1-(1,3-dimethyl-1H-pyrazol-4-yl)-3-methyl-2-oxo-2,3-dihydro-1H-imidazo[4,5-c]quinolin-8-yl]-phenyl}-methanesulfonamide] | 7.14 | 6.09 | 6.71 | 6.08 |
| CC(C)Oc1cncc(-c2ccc3ncc4c(c3c2)n(-c2cn(C)nc2Cl)c(=O)n4C)c1 [Example 58.2, 1-(3-Chloro-1-methyl-1H-pyrazol-4-yl)-8-(5-isopropoxy-pyridin-3-yl)-3-methyl-1,3-dihydro-imidazo[4,5-c]quinolin-2-one] | 8.22 | 8.30 | 7.85 | 7.92 |
| Cc1nn(C)cc1-n1c(=O)n(C)c2cnc3ccc(-c4cncc(OC5CCC5)c4)cc3c21 [Example 60.1, 8-(5-Cyclobutoxy-pyridin-3-yl)-1-(1,3-dimethyl-1H-pyrazol-4-yl)-3-methyl-1,3-dihydro-imidazo[4,5-c]quinolin-2-one] | > 8.52 | 8.52 | 7.64 | 7.48 |
| Cc1nn(C)cc1-n1c(=O)n(C)c2cnc3ccc(-c4ccc(-c5ncc[nH]5)cc4)cc3c21 [Example 77, 1-(1,3-Dimethyl-1H-pyrazol-4-yl)-8-[4-(1H-imidazol-2-yl)-phenyl]-3-methyl-1,3-dihydro-imidazo[4,5-c]quinolin-2-one] | 8.30 | 7.62 | 8.10 | 7.66 |
| Cc1nn(C)cc1-n1c(=O)n(C)c2cnc3ccc(-c4cccc(OC(C)C)c4)cc3c21 [Example 82, 1-(1,3-Dimethyl-1H-pyrazol-4-yl)-8-(3-isopropoxy-phenyl)-3-methyl-1,3-dihydro-imidazo[4,5-c]quinolin-2-one] | 7.41 | 6.81 | 6.55 | 6.50 |
| Cc1nn(C)cc1-n1c(=O)n(C)c2cnc3ccc(-c4ccc(N5CCCC5)nc4)cc3c21 [Example 97, 1-(1,3-Dimethyl-1H-pyrazol-4-yl)-3-methyl-8-(6-pyrrolidin-1-yl-pyridin-3-yl)-1,3-dihydro-imidazo[4,5-c]quinolin-2-one] | 7.07 | – | 7.77 | 7.52 |
| Cc1nn(C)cc1-n1c(=S)n(C)c2cnc3ccc(-c4cccnc4)cc3c21 [Example 128.1, 1-(1,3-Dimethyl-1H-pyrazol-4-yl)-3-methyl-8-pyridin-3-yl-1,3-dihydro-imidazo[4,5-c]quinoline-2-thione] | 7.96 | 7.46 | 7.57 | 6.90 |
| COc1ccc(-c2ccc3ncc4c(c3c2)n(-c2cn(C)nc2C)c(=S)n4C)cc1OC [Example 128.2, 8-(3,4-Dimethoxy-phenyl)-1-(1,3-dimethyl-1H-pyrazol-4-yl)-3-methyl-1,3-dihydro-imidazo[4,5-c]quinoline-2-thione] | 7.96 | 7.77 | 8.22 | 8.00 |
| Cc1cc(-n2c(=O)n(C)c3cnc4ccc(-c5cnc(F)c(N)c5)cc4c32)n(C)n1 [Example 149.3, 8-(5-Amino-6-fluoro-pyridin-3-yl)-1-(2,5-dimethyl-2H-pyrazol-3-yl)-3-methyl-1,3-dihydro-imidazo[4,5-c]quinolin-2-one] | 7.20 | 6.69 | 7.08 | 6.77 |
| Cc1nn(C)c(C)c1-n1c(=O)n(C)c2cnc3ccc(-c4cnc(Cl)c(N)c4)cc3c21 [Example 152.3, 8-(5-Amino-6-chloro-pyridin-3-yl)-3-methyl-1-(1,3,5-trimethyl-1H-pyrazol-4-yl)-1,3-dihydro-imidazo[4,5-c]quinolin-2-one] | 7.36 | 7.10 | 6.95 | 7.11 |

Other lines, results leading:

| pIC50 (PI3K alpha) | pIC50 (PI3K beta) | pIC50 [1] | pIC50 [2] | SMILES |
| --- | --- | --- | --- | --- |
| 7.85 | 7.72 | 8.22 | 8.05 | Cc1nn(C)cc1-n1c(=O)n(C)c2cnc3ccc(-c4cnc(N)c(C(F)(F)F)c4)cc3c21 [Example 25.1, 8-(6-Amino-5-trifluoromethyl-pyridin-3-yl)-1-(1,3-dimethyl-1H-pyrazol-4-yl)-3-methyl-1,3-dihydro-imidazo[4,5-c]quinolin-2-one] |
| 7.39 | 6.88 | 7.82 | 7.49 | Cc1cc(-n2c(=O)n(C)c3cnc4ccc(-c5cnc(N)c(C(F)(F)F)c5)cc4c32)n(C)n1 [Example 25.6, 8-(6-Amino-5-trifluoromethyl-pyridin-3-yl)-1-(2,5-dimethyl-2H-pyrazol-3-yl)-3-methyl-1,3-dihydro-imidazo[4,5-c]quinolin-2-one] |
| 7.44 | 7.39 | 7.77 | 7.60 | CCN(CC)c1cncc(-c2ccc3ncc4c(c3c2)n(-c2cn(C)nc2C)c(=O)n4C)c1 [Example 95, 8-(5-Diethylamino-pyridin-3-yl)-1-(1,3-dimethyl-1H-pyrazol-4-yl)-3-methyl-1,3-dihydro-imidazo[4,5-c]quinolin-2-one] |
| 7.80 | 7.70 | 8.00 | 8.15 | CNc1ncc(-c2ccc3ncc4c(c3c2)n(-c2cn(C)nc2Cl)c(=O)n4C)cc1C [Example 119, 1-(3-Chloro-1-methyl-1H-pyrazol-4-yl)-3-methyl-8-(5-methyl-6-methylamino-pyridin-3-yl)-1,3-dihydro-imidazo[4,5-c]quinolin-2-one] |
| 8.10 | 7.40 | 7.92 | 7.92 | CNc1ncc(-c2ccc3ncc4c(c3c2)n(-c2cn(C(C)C)nc2C)c(=O)n4C)cc1C(F)(F)F [Example 144.2, 1-(1-Isopropyl-3-methyl-1H-pyrazol-4-yl)-3-methyl-8-(6-methylamino-5-trifluoromethyl-pyridin-3-yl)-1,3-dihydro-imidazo[4,5-c]quinolin-2-one] |
| 7.57 | 7.30 | 7.89 | 7.38 | CCNc1ncc(-c2ccc3ncc4c(c3c2)n(-c2cn(C)nc2C)c(=O)n4C)cc1C(F)(F)F [Example 145.2, 1-(1,3-Dimethyl-1H-pyrazol-4-yl)-8-(6-ethylamino-5-trifluoromethyl-pyridin-3-yl)-3-methyl-1,3-dihydro-imidazo[4,5-c]quinolin-2-one] |
| 8.15 | 8.52 | 8.00 | 7.85 | CCn1cc(-n2c(=O)n(C)c3cnc4ccc(-c5cnc(N)c(Cl)c5)cc4c32)c(C)n1 [Example 148.3, 8-(6-Amino-5-chloro-pyridin-3-yl)-1-(1-ethyl-3-methyl-1H-pyrazol-4-yl)-3-methyl-1,3-dihydro-imidazo[4,5-c]quinolin-2-one] |
| 7.57 | 7.10 | 8.22 | 7.80 | Cc1nn(C(C)C)cc1-n1c(=O)n(C)c2cnc3ccc(-c4cnc(Cl)c(N)c4)cc3c21 [Example 152.1, 8-(5-Amino-6-chloro-pyridin-3-yl)-1-(1-isopropyl-3-methyl-1H-pyrazol-4-yl)-3-methyl-1,3-dihydro-imidazo[4,5-c]quinolin-2-one] |
| 8.00 | 7.09 | 6.92 | 6.95 | CCOCc1cc(-c2ccc3ncc4c(c3c2)n(-c2cn(C(C)C)nc2C)c(=O)n4C)cnc1N [Example 166.3, 8-(6-Amino-5-ethoxymethyl-pyridin-3-yl)-1-(1-isopropyl-3-methyl-1H-pyrazol-4-yl)-3-methyl-1,3-dihydro-imidazo[4,5-c]quinolin-2-one] |
